The text below walks through data of patent US20250179559A1, “DUAL-LUCIFERASE REPORTER GENE DETECTION SYSTEM, FLUORESCENCE DETECTION KIT, AND METHOD FOR DETECTING LUMINESCENT SIGNAL OF LUCIFERASE” (BGI SHENZHEN, priority 2022, published 2025).

The structures appear in SMILES notation.

Experiment [1] has as its system Pleuromamma xiphias luciferase mutant P26-95. In words: Luminescence intensity of substrates with Pleuromamma xiphias luciferase mutant P26-95. The format is biochemical. As to conditions: mutant P26-95, among tested substrates. Here is the method: (§1) The two luciferases were diluted to a concentration of 1 μg/mL with a diluent (50 mM Tris-HCl pH 8.0, 100 mM NaCl, 0.1% (v/v) Tween-20), and 10 μL of each luciferase was taken and added to a black 96-well plate. The substrate was diluted to 10 μM with the same diluent, 90 μL of the substrate was taken add into the 96-well plate containing the above luciferases (90 μL/well), and the luminescence intensity was read by using a light-emitting module of a microplate reader.
Mutant-Type Pleuromamma xiphias Luciferase P26-95: • d) P26-95: based on SEQ ID NO: 3, the following sites were mutated: G83A, and G84P.
(§2) According to the method as described in Example 1, an expression vector containing the gene of the Gaussia luciferase mutant and the gene of the Pleuromamma xiphias luciferase mutant was constructed, a recombinant strain was constructed, the mutant-type luciferases were expressed, and the luminous intensity of substrates and luciferases was detected.

Experiment [2] has as its system wild-type Pleuromamma xiphias luciferase (WT-Pxluc). In words: Luminescence intensity of substrates with wild-type Pleuromamma xiphias luciferase. The experiment is classed as biochemical. As to conditions: for Pxluc fluorescence intensity: luciferase 1 μg/mL (10 μL), substrate 10 μM (90 μL), microplate reader; for Pxluc relative intensity: percentage relative to wild-type Pleuromamma xiphias luciferase with compound N0, substrate 10 μM. Here is the method:
(§3) [drawing 6] • (3) According to the conventional methods, such as the method disclosed in PCT/CN2017/082180, an expression vector (plasmid) containing the wild-type Gaussia luciferase gene and the wild-type Pleuromamma xiphias luciferase gene was constructed. The plasmid was transformed into Escherichia coli OrigamiB (DE3), which was coated on a plate, and a single colony was picked from the plate, cultured overnight at 37° C., diluted at a ratio of 1:100 on the next day, transferred to 3 mL of fresh LB medium containing ampicillin resistance (100 μg/mL), cultured with shaking at 37° C. and 200 rpm for 4 hours, and cooled on ice for 1 hour. The inducer IPTG was added at a final concentration of 1 mM and the induction was preformed overnight at 16° C. On the next day, the bacteria were collected by centrifugation, resuspended with 500 μL lysate (50 mM Tris-HCl pH 8.0, 500 mM NaCl, 0.2% lysozyme, PMSF), lysed for 20 minutes at room temperature, frozen with liquid nitrogen and thawed for 3 times, and centrifuged for 30 minutes at 18,000 g. The supernatant was taken, which was purified by using a centrifugal Ni column. The protein eluted by Ni column was dialyzed with dialysis buffer (25 mM Tris, pH 8.0, 250 mM NaCl) at 4° C. overnight. The concentration of luciferase was accurately determined by using a BCA quantitative kit (Thermoscientific™ Pierce™ BCA protein assay kit). The two luciferases were diluted to a concentration of 1 μg/mL with a diluent (50 mM Tris-HCl pH 8.0, 100 mM NaCl, 0.1% (v/v) Tween-20), and 10 μL of each luciferase was taken and added to a black 96-well plate. The substrate was diluted to 10 μM with the same diluent, 90 μL of the substrate was taken add into the 96-well plate containing the above luciferases (90 μL/well), and the luminescence intensity was read by using a light-emitting module of a microplate reader. The test data of the Gaussia luciferase and the Pleuromamma xiphias luciferase on different substrates were shown in Table 1, in which the relative intensity is a percentage relative to the activity of wild-type Pleuromamma xiphias luciferase and compound N0. […] That is, in this dual-luciferase reporter gene detection system, the optimal luminescent combination with high fluorescence brightness and low cross-interference obtained after screening is using f-CTZ to detect the Gaussia luciferase, and using N0 to detect the Pleuromamma xiphias luciferase.

The subject of experiment [3] is wild-type Gaussia luciferase (WT-Gluc). Kind of experiment: Luminescence intensity of substrates with wild-type Gaussia luciferase. The format is biochemical, Gaussia princeps. As to conditions: for Gluc fluorescence intensity: luciferase 1 μg/mL (10 μL), substrate 10 μM (90 μL), microplate reader; for Gluc relative intensity: percentage relative to wild-type Pleuromamma xiphias luciferase with compound N0, substrate 10 μM. The procedure:
as §3

The test system of experiment [4] is Gaussia luciferase mutant G2-F8. In words: Luminescence intensity of substrates with Gaussia luciferase mutant G2-F8. The experiment is classed as biochemical, Gaussia princeps. As to conditions: mutant G2-F8, among tested substrates. The procedure:
as §1, §2

For experiment [5], the system named is Gaussia luciferase mutant G2-F11. Kind of experiment: Luminescence intensity of substrates with Gaussia luciferase mutant G2-F11. The format is biochemical, Gaussia princeps. As to conditions: mutant G2-F11, among tested substrates. Here is the method: as §1, §2
Experiment [6] has as its system Gaussia luciferase mutant E1-A3. In words: Luminescence intensity of substrates with Gaussia luciferase mutant E1-A3. The experiment is classed as biochemical, Gaussia princeps. As to conditions: mutant E1-A3, among tested substrates. The procedure: as §1, §2

For `O=c1c(Cc2ccc(O)cc2)nc2c(Cc3ccccc3)[nH]c(-c3cccc(O)c3)cn1-2` [Substrate N0], in experiment [1], the “fluorescence intensity compared among substrates (in words)” value was “highest fluorescence intensity”. In addition, in experiment [2], the Pxluc fluorescence intensity came to 160037 and the Pxluc relative intensity was 100%. For the same molecule, the “fluorescence intensity compared among substrates (in words)” value in experiment [2] (wild-type Pleuromamma xiphias luciferase, among tested substrates) is “highest fluorescence intensity”. In experiment [3], the Gluc fluorescence intensity turned out to be 5338 and the Gluc relative intensity is reported as 3.3%.
Consider `O=c1c(Cc2ccc(O)cc2)nc2c(Cc3ccccc3)[nH]c(Cc3ccccc3)cn1-2` [Substrate N1], for which, in experiment [2], the Pxluc fluorescence intensity was found to be 1173 and the Pxluc relative intensity turned out to be 0.7%. For the same molecule, in experiment [3], the Gluc fluorescence intensity was 0 and the Gluc relative intensity is recorded as 0.0%.
The matching figures for `O=c1c(Cc2ccc(F)cc2)nc2c(Cc3ccccc3)[nH]c(Cc3ccccc3)cn1-2` [Substrate N2]: 3026, 1.9%, 0 and 0.0%.
With `CN(C)c1ccc(-c2cn3c(=O)c(Cc4ccc(O)cc4)nc-3c(Cc3ccccc3)[nH]2)cc1` [Substrate N3], in experiment [2], the Pxluc fluorescence intensity was found to be 1520 and the Pxluc relative intensity is reported as 0.9%. Besides, in experiment [3], the Gluc fluorescence intensity was determined as 263 and the Gluc relative intensity was 0.2%.
`CN(C)c1ccc(-c2cn3c(=O)c(Cc4ccc(F)cc4)nc-3c(Cc3ccccc3)[nH]2)cc1` [Substrate N4]: in experiment [2], the Pxluc fluorescence intensity was determined as 4137 and the Pxluc relative intensity came to 2.6%. In experiment [3], the Gluc fluorescence intensity is 17 and the Gluc relative intensity was 0.0%.
On to `Nc1ccc(-c2cn3c(=O)c(Cc4ccc(O)cc4)nc-3c(Cc3ccccc3)[nH]2)cc1` [Substrate N5], for which, in experiment [2], the Pxluc fluorescence intensity turned out to be 4430 and the Pxluc relative intensity turned out to be 2.8%. In experiment [3], the Gluc fluorescence intensity is 457 and the Gluc relative intensity was 0.3%.
For `Nc1ccc(-c2cn3c(=O)c(Cc4ccc(F)cc4)nc-3c(Cc3ccccc3)[nH]2)cc1` [Substrate N6], in experiment [2], the Pxluc fluorescence intensity came to 3464 and the Pxluc relative intensity was determined as 2.2%. Besides, in experiment [3], the Gluc fluorescence intensity was determined as 15 and the Gluc relative intensity stood at 0.0%.
Consider `O=c1c(Cc2ccc(O)cc2)nc2c(Cc3ccccc3)[nH]c(/C=C/c3ccccc3)cn1-2` [Substrate N7], for which, in experiment [2], the Pxluc fluorescence intensity is 4430 and the Pxluc relative intensity came to 2.8%. In addition, in experiment [3], the Gluc fluorescence intensity came out at 135 and the Gluc relative intensity is on record as 0.1%.
The matching figures for `O=c1c(Cc2ccc(F)cc2)nc2c(Cc3ccccc3)[nH]c(/C=C/c3ccccc3)cn1-2` [Substrate N8]: 1426, 0.9%, 12 and 0.0%.
As to `O=c1c(Cc2ccc(F)cc2)nc2c(Cc3ccccc3)[nH]c(-c3ccc(O)cc3)cn1-2` [f-CTZ], the “fluorescence intensity compared among substrates (in words)” value is “highest fluorescence intensity” in experiment [4]; “highest fluorescence intensity” in experiment [5]; “highest fluorescence intensity” in experiment [3] (wild-type Gaussia luciferase, among tested substrates); “highest fluorescence intensity” in experiment [6]. Further, the Pxluc fluorescence intensity in experiment [2] turned out to be 69138. Further, the Pxluc relative intensity in experiment [2] was determined as 43.2%. For the same molecule, the Gluc fluorescence intensity in experiment [3] was found to be 10186.5. The Gluc relative intensity in experiment [3] is reported as 6.4%.
